Source: paper PMC12564639, “Discovery of a Novel Anticoagulant Cystine Knot Peptide from Spider Venom Gland Transcriptome” (International Journal of Molecular Sciences, 2025)
pKd: −log10 of the molar value. Peptide text beside a SMILES is read from it.

What was measured:
[1] = molecular target: T1, Human Activated Protein C (APC-1.0) (Homo sapiens, UniProt P04070); experiment: APC activity by chromogenic substrate assay; assay type: biochemical; settings: APC 0.7145 μM, S-2366 402.1 μM, PBS, 37 °C, pre-incubation 10 min, n = 3
T1 construct: purchased Enzyme Research Laboratories, Inc., South Bend, IN, USA APC-1.0
From the text: (§1) Human Activated Protein C (APC-1.0) was purchased from Enzyme Research Laboratories, Inc., South Bend, IN, USA. […] Activated Partial Thromboplastin Time (APTT) Test Kit (TC0306) was bought from Senkey Biotechnology Co., Ltd., Kunming, China. Prothrombin Time (PT) Test Kit (GMS10176) was purchased from GENMED Scientifics Inc., Shanghai, China. Streptavidin (SA) Biosensors (18-5019) were obtained from Sartorius AG, Göttingen, Lower Saxony, Germany. PBS (21-040-CVC) was bought from Corning Incorporated, Corning, NY, USA. Tween-20 (BS361B) was purchased from Biosharp Life Sciences, Hefei, Anhui, China. Trifluoroacetic acid (TFA, T818778-500ml, CAS: 76-05-1) and CaCl2 (C805225) were obtained from Macklin Biochemical Co., Ltd., Shanghai, China. L-oxidized glutathione (GSSG, V900363), Rose Bengal Dye (content 95%, CAS: 632-69-9, 330000-5G), and HEPES (V900477-500G) were purchased from Sigma-Aldrich LLC, St. Louis, MO, USA (Shanghai branch: Sigma-Aldrich Shanghai Trading Co., Ltd., Shanghai, China). […]
APC (0.7145 μM) was pre-incubated with varying concentrations of GC38 (0.1, 1 and 10 μM) in PBS at 37 °C for 10 min. […] Kinetic measurements were performed at 37 °C using a Multi-Mode Microplate Reader (BioTek Synergy™ H1, Winooski, VT, USA) with absorbance at 405 nm recorded every 10 s for 30 min. […]
Target sequence in this assay (P04070 212-461 limits assumed): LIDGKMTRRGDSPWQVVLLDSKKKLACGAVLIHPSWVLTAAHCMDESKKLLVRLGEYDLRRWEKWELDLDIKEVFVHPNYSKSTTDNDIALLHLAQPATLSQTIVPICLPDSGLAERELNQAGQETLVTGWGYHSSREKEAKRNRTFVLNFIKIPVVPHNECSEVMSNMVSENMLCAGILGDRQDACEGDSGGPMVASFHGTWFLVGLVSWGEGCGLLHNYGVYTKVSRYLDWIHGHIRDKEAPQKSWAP
Target sequence in this assay (P04070 43-197 limits assumed): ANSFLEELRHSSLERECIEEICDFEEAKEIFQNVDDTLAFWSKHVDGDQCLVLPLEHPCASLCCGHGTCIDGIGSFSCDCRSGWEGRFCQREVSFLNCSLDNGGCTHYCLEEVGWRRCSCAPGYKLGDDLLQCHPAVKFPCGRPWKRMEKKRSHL

[2] = test system: cortical photothrombotic stroke in mice; experiment: Rose Bengal-mediated cortical photothrombotic stroke (CPS) model; assay type: in vivo, mouse; settings: n = 6; for blood flow reduction (cerebral): laser speckle perfusion, vehicle 40.1%
Procedure: The C57BL/6J mice (male, 6–8 weeks old) were purchased from Beijing Vital River Laboratory Animal Technology Co., Ltd. (Beijing, China). All animal studies were performed under the approval of the Ethics Committee of the Laboratory Animal Welfare of the Kunming Institute of Zoology, Chinese Academy of Sciences (IACUC-RE-2025-03-010).
The Rose Bengal-mediated CPS model was employed to induce focal cerebral ischemia in mice. Rose Bengal (50 mg/kg), a photosensitive dye, was administered intravenously 1 h before the surgery, followed by an intravenous injection of PBS (vehicle control), GC38 (2 or 4 mg/kg), and heparin sodium (1000 U/kg) 10 min before the surgery. Briefly, mice were anesthetized and secured in a stereotaxic frame. A midline scalp incision was made to expose the skull, followed by illumination with a 562 nm yellow-green laser (R-LG561-100-A5, RWD Life Science, Shenzhen, China) for 7 min. This process generated reactive oxygen species, resulting in endothelial damage and subsequent thrombus formation. Post-illumination, the scalp was sutured, and mice were placed on a warming pad for recovery. Cerebral ischemia severity was evaluated using the LSP imaging system, and the 15-day survival rates after ischemia induction were recorded.

[3] = molecular target: T1, Human Activated Protein C (APC-1.0); experiment: Bio-layer interferometry (BLI) binding; settings: Octet R2, SA biosensors, biotinylated APC 10 µg/mL, GC38 3.125-50 μM, PBS with 0.02% Tween-20, association 300 s, dissociation 180 s, average of three, read-out: dissociation constant (KD)
From the text: as §1
The binding affinity between APC and GC38 was measured using the Octet® R2 system (ForteBio, Fremont, CA, USA) with Streptavidin (SA) biosensors. […] Data were acquired and analyzed using Octet® Data Acquisition and Analysis software version 8.2. […]

CSCC[C@@H]1NC(=O)[C@H](CC(N)=O)NC(=O)CNC(=O)CNC(=O)[C@H](Cc2c[nH]cn2)NC(=O)[C@H](CCCNC(=N)N)NC(=O)CNC(=O)[C@@H]2CSSC[C@@H]3NC(=O)[C@H](CCCNC(=N)N)NC(=O)[C@H](C)NC(=O)CNC(=O)[C@H](CCCCN)NC(=O)CNC(=O)[C@H](CO)NC(=O)[C@@H](NC(=O)CN)CSSC[C@H](NC(=O)[C@H](CSSC[C@@H](C(=O)N[C@@H](CCC(=O)O)C(=O)N[C@@H](Cc4c[nH]c5ccccc45)C(=O)N[C@@H](CC(N)=O)C(=O)N[C@@H](Cc4c[nH]c5ccccc45)C(=O)N[C@@H](CCCCN)C(=O)N[C@H](C(=O)NCC(=O)O)[C@@H](C)O)NC(=O)[C@H](CO)NC(=O)[C@H](CCCCN)NC(=O)[C@H](Cc4ccc(O)cc4)NC1=O)NC(=O)[C@H](CCCCN)NC(=O)[C@H](CO)NC(=O)[C@@H]1CCCN1C(=O)[C@H](C)NC3=O)C(=O)N[C@@H](CO)C(=O)NCC(=O)N[C@@H](CC(C)C)C(=O)N[C@@H](CO)C(=O)N2 [GC38] (HELM PEPTIDE1{G.C.S.G.K.G.A.R.C.A.P.S.K.C.C.S.G.L.S.C.G.R.H.G.G.N.M.Y.K.S.C.E.W.N.W.K.T.G}$PEPTIDE1,PEPTIDE1,2:R3-15:R3|PEPTIDE1,PEPTIDE1,9:R3-20:R3|PEPTIDE1,PEPTIDE1,14:R3-31:R3$$$V2.0)
activity of APC at maximum catalytic velocity (Vmax) ([1]; GC38 10 μM, 405 nm, versus PBS control, mean): 171%
APC activity, concentration dependence ([1]; GC38 0.1-10 μM, absorbance 405 nm every 10 s for 30 min): enhanced APC activity in a concentration-dependent manner
blood flow reduction (cerebral) ([2]; GC38 2 mg/kg i.v. 10 min before surgery): 22.0%
blood flow reduction (cerebral) ([2]; GC38 4 mg/kg i.v. 10 min before surgery): 6.4%
microvascular occlusion and ischemic lesions ([2]; GC38 4 mg/kg i.v.): delayed microvascular occlusion and alleviated the formation of ischemic lesions
15-day survival rate ([2]; versus untreated group): improved the 15-day survival rate of mice
pKd [3]: 5.21
